Results as given in ChEMBL document CHEMBL5329182, “Design, Synthesis, anti-inflammatory activity Evaluation, preliminary exploration of the Mechanism, molecule Docking, and structure-activity relationship analysis of batatasin III analogs” (Bioorg Med Chem Lett, 2023).
pIC50: −log10 of the molar value.

Legend:
[1] = Cytotoxicity against mouse RAW264.7 cells assessed as cell survival rate at 50 uM by MTT assay relative to control; type: toxicity, cell-based; settings: read-out: Activity
[2] = test system: RAW264.7; test: Antiinflammatory activity against LPS-stimulated mouse RAW264.7 cells assessed as NO emission at 50 uM (reference value: 20.56 +/-0.06%); type: functional
[3] = test system: RAW264.7; test: Antiinflammatory activity against mouse RAW264.7 cells assessed as inhibition of NO production at 50 uM relative to control; type: functional
[4] = test system: RAW264.7; test: Antiinflammatory activity against mouse RAW264.7 cells assessed as inhibition of NO release; type: functional, cell-based
[5] = Cytotoxicity against mouse RAW264.7 cells assessed as reduction in cell survival by MTT assay; type: toxicity, cell-based
[6] = Cytotoxicity against mouse RAW264.7 cells assessed as cell survival rate at 20 uM by MTT assay relative to control; type: toxicity, cell-based; settings: read-out: Activity
[7] = test system: RAW264.7; test: Antiinflammatory activity against LPS-stimulated mouse RAW264.7 cells assessed as NO emission at 20 uM (reference value: 20.56 +/-0.06%); type: functional
[8] = test system: RAW264.7; test: Antiinflammatory activity against mouse RAW264.7 cells assessed as inhibition of NO production at 20 uM relative to control; type: functional
[9] = test system: RAW264.7; test: Antiinflammatory activity against LPS-stimulated mouse RAW264.7 cells assessed as reduction in iNOS protein expression by Western blot analysis; type: functional, cell-based; settings: dose 5-20 µM
[10] = target: Transcription factor p65 (Mus musculus) (UniProt Q04207); test: Inhibition of p65 phosphorylation in LPS-stimulated mouse RAW264.7 cells by Western blot analysis; type: cell-based; settings: dose 5-20 µM
Transcription factor p65 (Mus musculus), sequence (Q04207 whole entry): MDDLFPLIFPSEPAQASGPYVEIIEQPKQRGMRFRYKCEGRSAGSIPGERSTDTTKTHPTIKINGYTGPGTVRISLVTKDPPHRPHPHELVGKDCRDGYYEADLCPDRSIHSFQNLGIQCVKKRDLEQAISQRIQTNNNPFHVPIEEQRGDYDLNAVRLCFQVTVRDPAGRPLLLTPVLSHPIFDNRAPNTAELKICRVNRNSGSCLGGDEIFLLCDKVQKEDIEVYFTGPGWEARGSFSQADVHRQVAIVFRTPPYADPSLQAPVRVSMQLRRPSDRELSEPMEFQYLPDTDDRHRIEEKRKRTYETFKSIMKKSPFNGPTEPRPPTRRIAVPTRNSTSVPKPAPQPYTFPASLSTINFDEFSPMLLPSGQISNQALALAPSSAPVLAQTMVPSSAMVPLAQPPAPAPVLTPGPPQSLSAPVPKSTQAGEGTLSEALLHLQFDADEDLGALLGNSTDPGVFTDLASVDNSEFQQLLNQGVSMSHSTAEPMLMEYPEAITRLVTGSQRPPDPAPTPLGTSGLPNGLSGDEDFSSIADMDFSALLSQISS

[11] = test system: RAW264.7; test: Antiinflammatory activity against LPS-stimulated mouse RAW264.7 cells assessed as reduction in beta-catenin protein expression by Western blot analysis; type: functional, cell-based; settings: dose 5-20 µM

pIC50 [4]	inhibition [10]	SMILES	viability at 50 µM [1] [%]	Activity [2] [µM]	inhibition at 50 µM [3] [%]	CC50 [5] [µM]	viability at 20 µM [6] [%]	Activity [7] [µM]	inhibition at 20 µM [8] [%]	Activity [9]	Activity [11]
< 4.30		COc1cc(/C=C/c2cccc(C(F)(F)F)c2)cc(OC)c1	109	17.66	14.1						
4.27		Oc1cccc(/C=C/c2cc(O)cc(O)c2)c1	110	15.88	22.8						
< 4.30		COc1cc(CCc2ccc(C(C)(C)C)cc2)cc(OC)c1	106	17.5	14.9						
4.23		COc1cc(CCc2cccc(C)c2)cc(OC)c1	109	16.28	20.9						
< 4.30		COc1cc(/C=C/c2ccc(C(C)(C)C)cc2)cc(OC)c1	99.3	17.68	14						
< 4.30		C[C@@H]1C[C@H]2[C@@H]3CCC4=CC(=O)C=C[C@]4(C)[C@@]3(F)[C@@H](O)C[C@]2(C)[C@@]1(O)C(=O)CO [DEXAMETHASONE]	107	15.05	26.9						
< 4.30		COc1cc(CCc2cccc(C#N)c2)cc(OC)c1	105	21.8	-5.99						
< 4.30		COc1cc(/C=C/c2cc(C(C)(C)C)cc(C(C)(C)C)c2)cc(OC)c1	104	17.02	17.2						
4.89	Dose-Dependent Effect	CC(C)(C)c1cc(CCc2cc(O)cc(O)c2)cc(C(C)(C)C)c1				34.3	99.1	10.08	51	Dose-Dependent Effect	Dose-Dependent Effect
< 4.30		COc1cc(/C=C/c2cccc(Cl)c2)cc(OC)c1	97.8	18.96	7.82						
4.35		O=[N+]([O-])c1cccc(/C=C/c2cc(O)cc(O)c2)c1	104	15.32	25.5						
4.32		Oc1cccc(CCc2cc(O)cc(O)c2)c1	110	14.12	31.4						
< 4.30		COc1cc(CCc2ccco2)cc(OC)c1	103	21.18	-2.98						
< 4.30		COc1cc(/C=C/c2cccc(C#N)c2)cc(OC)c1	114	18.22	11.4						
< 4.30		Oc1cc(O)cc(CCc2cccnc2)c1	98.9	18.06	12.2						
< 4.30		COc1cc(CCc2cc(C(C)(C)C)cc(C(C)(C)C)c2)cc(OC)c1	114	16.82	18.2						
< 4.30		COc1cc(CCc2cccc(C(F)(F)F)c2)cc(OC)c1	103	16.54	19.6						
< 4.30		COc1cc(/C=C/c2cccc([N+](=O)[O-])c2)cc(OC)c1	104	17.5	14.9						
4.63		CC(C)(C)c1ccc(CCc2cc(O)cc(O)c2)cc1	106	9.74	52.6						
< 4.30		COc1cccc(/C=C/c2cc(OC)cc(OC)c2)c1	97.2	16.82	18.2						
< 4.30		COc1cc(/C=C/c2cccnc2)cc(OC)c1	97.7	15.94	22.5						
4.26		COc1cc(CCc2cccc(N)c2)cc(OC)c1	104	15.2	26.1						
< 4.30		COc1cc(CCc2ccccc2)cc(OC)c1	99.5	19.3	6.16						
< 4.30		Oc1cc(O)cc(CCc2ccccc2)c1 [DIHYDROPINOSYLVIN]	102	16.86	18						
< 4.30		COc1cc(CCc2cccnc2)cc(OC)c1	97.8	17.72	13.8						
< 4.30		COc1cc(O)cc(CCc2cccc(O)c2)c1 [BATATASIN III]	106	16.14	21.5						
